From patent US20050154229A1, “Maleic acid salt of(2s)-n-{5-[amino(imino)methy]-2-thienyl}methyl-1-{(2r)-2-[(carboxymethyl)amino]-3,3-diphenylpropanoyl}-2-pyrrolidine carboxamide and a process for” (priority 2002, published 2005)
Counter-ions that a name gives are not always drawn.

Assays:
Type in all cases: physicochemical
[1] = Moisture absorption and dehumidification tests at defined relative humidities (condition observed, weight change); conditions: two days or more
Description: After 40 mg of the amorphous form of maleic acid salt prepared in Example 1 was thinly coated onto a beaker, the sample was moisture-absorbed by placing it at each relative humidity of 33%, 57%, 64%, 75% and 93% for two days or more and its condition was observed. In order to obtain each relative humidity above, as shown in the table below, saturated aqueous solutions of salts were prepared and then placed in a desiccator, and the desiccator was sealed.
100 mg of the crystalline form of maleic acid salt prepared in Example 2 was thinly coated onto a beaker and then placed at each relative humidity of 33%, 57%, 64%, 75% and 93% for two days or more to be moisture-absorbed. Thereafter, the weight change of the sample was measured while its condition is observed. In order to obtain each relative humidity above, as shown in Table 2 of Test example 2, saturated aqueous solutions of salts were prepared and then placed in a desiccator and the desiccator was sealed.
The method as described in Test example 2 was applied to the amorphous diHCl salt prepared in Comparative Example 1. From observing its change at each relative humidity, it is shown that the salt was deliquesced at the relative humidity of 75%. […] Therefore, it can be shown that the maleic acid salt is the most excellent among various acid salts.

[2] = Powder X-ray diffraction test during moisture absorption and dehumidification; conditions: vacuum dried, then relative humidity 33%, 53%, 64%, 75% and 93%, two days or more each
Description: 40 mg of the crystalline form of maleic acid salt prepared in Example 2 was thinly coated onto a sample holder and then the powder X-ray diffraction test was conducted according to the following conditions. By using Rigaku Geigeflex D/max-III C apparatus, the test was conducted at 35 kV, 20 mA.
40 mg of the maleic acid salt prepared in Example 2 was thinly coated onto a sample holder. Immediately after the sample was vacuum dried in the presence of P2O5, and after the sample was placed for moisture absorption at each relative humidity of 33%, 53%, 64%, 75% and 93% for two days or more, respectively, the powder X-ray diffraction test of the sample was conducted according to the conditions represented in the above Test example 1 to observe change of the crystalline form during moisture absorption. While lowering the relative humidity, the same test was repeated to observe change of the crystalline form during dehumidification. In order to obtain each relative humidity above, as shown in Table 2 of Test example 2, saturated aqueous solutions of salts were prepared and then placed in a desiccator and the desiccator was sealed.

[3] = Test of the dissolution rate per unit area (0.5 cm^2 disk in buffer solutions)
Description: Some compounds may have difficulty in being absorbed due to a low dissolution rate. To confirm the above difficulty beforehand, a disk having the area of 0.5 cm^2 is prepared, and then its dissolution rate in various media is measured. The dissolution amount over time is measured and its value is divided by the disk's area. The value is the dissolution rate per unit area. If the value is usually 1 mg/min/cm^2 or more, it can be said that there is no phenomenon for the drug not to be absorbed due to the low dissolution rate. If the value is 0.1 mg/min/cm^2 or less, it can be said that the drug has a problem of absorption due to the low dissolution rate (see, Howard C. Ansel, Nicholas G. Popovich and Loyd V. Allen, 1995, Pharmaceutical Dosage Forms and Drug Delivery Systems, 6th ed., Williams & Wilkins, pp.109 and Jens T. Carstensen, 1996, Modern Pharmaceutics: Gilbert S. Banker and Christopher T. Rhodes (Ed.), Drugs and the pharmaceutical sciences, Vol. 72, 3rd ed., Dekker, pp. 233.). Thus, measuring the dissolution rate per unit area has a very significant meaning in predicting the absorption problem that may occur in in vivo test of the drug later. Therefore, a compound having an excellent dissolution rate per unit area should be selected as a candidate for the drug development.
200 mg of the crystalline form of maleic acid salt prepared in Example 2 was put into a mold. By applying pressure on the mold, a disk having the area of 0.5 cm^2 was prepared and the disk was added to each of the buffer solutions (600 ml) of pH 3.8 and 7.4 to conduct the dissolution test. A portion of the solution was periodically taken and its concentration was measured to determine the dissolution rate per unit area.
The same test as Test example 5 was conducted on the free compound of Formula 1. The dissolution rate per unit area of the free compound was 1.3 mg/min/cm^2 at pH 3.8 and 0.3 mg/min/cm^2 at pH 7.4.

SMILES	condition observed after moisture absorption ([1]; relative humidity of 75%)	condition observed after moisture absorption ([1]; relative humidity of 93%)	weight increase on moisture absorption based on initial weight ([1]; relative humidity of 33%)	weight increase on moisture absorption based on initial weight ([1]; relative humidity of 57%)	weight increase on moisture absorption based on initial weight ([1]; relative humidity of 64%)	weight increase on moisture absorption based on initial weight ([1]; relative humidity of 75%)	weight increase on moisture absorption based on initial weight ([1]; relative humidity of 93%)	change of the powder X-ray diffraction diagram (crystalline form) during moisture absorption and dehumidification [2]	dissolution rate per unit area ([3]; buffer solution pH 3.8, 600 ml)	dissolution rate per unit area ([3]; buffer solution pH 7.4, 600 ml)
N=C(N)c1ccc(CNC(=O)[C@@H]2CCCN2C(=O)[C@H](NCC(=O)O)C(c2ccccc2)c2ccccc2)s1.O=C(O)/C=C\C(=O)O [amorphous form of maleic acid salt, maleic acid salt of (2S)-N-{5-[amino(imino)methyl]-2-thienyl}methyl-1-{(2R)-2-[(carboxymethyl)amino]-3,3-diphenylpropanoyl}-2-pyrrolidine carboxamide]	hardened	deliquesced	–	–	–	–	–	–	–	–
N=C(N)c1ccc(CNC(=O)[C@@H]2CCCN2C(=O)[C@H](NCC(=O)O)C(c2ccccc2)c2ccccc2)s1 [amorphous diHCl salt]	deliquesced	–	–	–	–	–	–	–	–	–
N=C(N)c1ccc(CNC(=O)[C@@H]2CCCN2C(=O)[C@H](NCC(=O)O)C(c2ccccc2)c2ccccc2)s1.O=C(O)/C=C\C(=O)O [crystalline form of maleic acid salt, maleic acid salt of (2S)-N-{5-[amino(imino)methyl]-2-thienyl}methyl-1-{(2R)-2-[(carboxymethyl)amino]-3,3-diphenylpropanoyl}-2-pyrrolidine carboxamide]	–	not deliquesced	1.4%	3.0%	4.3%	4.1%	6.7%	did not show any change	11.8 mg/min/cm^2	1.7 mg/min/cm^2
N=C(N)c1ccc(CNC(=O)[C@@H]2CCCN2C(=O)[C@H](NCC(=O)O)C(c2ccccc2)c2ccccc2)s1 [free compound, (2S)-N-{5-[amino(imino)methyl]-2-thienyl}methyl-1-{(2R)-2-[(carboxymethyl)amino]-3,3-diphenylpropanoyl}-2-pyrrolidine carboxamide]	–	–	–	–	–	–	–	–	1.3 mg/min/cm^2	0.3 mg/min/cm^2
